According to patent US20170044100A1, “INHIBITORS OF DRUG-RESISTANT MYCOBACTERIUM TUBERCULOSIS” (THE JOHNS HOPKINS UNIVERSITY, priority 2014, published 2017):
In brackets after ≈: the same amount, converted by molar mass. Like-named read-outs stand apart in the source and are kept apart here.

How the values were obtained:
M. tuberculosis H37Rv [1] = assay: microbe, parasite or virus in culture; format: cell-based, Mycobacterium tuberculosis; set-up: MICBD / MBCBD: unit not given here; conditions: for MBC: Mycobacterium tuberculosis, H37RV, read-out: minimum bactericidal concentration (MBC)
[2] = test system: M. tuberculosis strain H37Rv; assay: microbe, parasite or virus in culture; format: cell-based, Mycobacterium tuberculosis; set-up: MICMABA: unit not given here
[3] = Cytotoxicity assay on Vero cells (alamar blue); conditions: African green monkey, Vero cells (ATCC CCL-81)
Vero cells = assay: Cytotoxicity assay on Vero cells (alamar blue); conditions: for IC50: Chlorocebus sabaeus, Vero
M. tuberculosis H37Rv [4] = format: in vivo, BALB/c mice
[5] = test system: V4207 (drug susceptible strain of M. tuberculosis); assay: microbe, parasite or virus in culture; format: cell-based; conditions: Mycobacterium tuberculosis, MABA, read-out: MIC V4207 (DS)
M. tuberculosis H37Rv [6] = format: cell-based, Mycobacterium tuberculosis; conditions: 4× MIC
[7] = set-up: species or system BALB/c mice; conditions: mouse, in vivo
Method: Female BALB/c mice (20 g each, Charles River Laboratories) were given a single dose of compound 12 at 100 mg/kg by oral gavage in a volume of 0.2 mL. […] Mouse lungs were removed, weighed and stored at −80° C. Plasma was separated by centrifugation at 12,000 x g for 20 min at 4° C. and stored at −80° C. Mouse lungs were homogenized by bead-beating in 0.5 mL of liquid chromatography/mass spectrometry (LC/MS) water and supernatants were recovered by centrifugation at 4° C. for 20 min. Concentrations of compound 12 in plasma and lung homogenate supernatants were analyzed with LC-tandem MS (LC-MS/MS, AB SCIEX QTRAP 5500 system) with compound 2 as internal standard. MS detection of mass transitions 299.01/146.1 and 299.01/131.1 was carried out. Concentration calculation was done with MultiQuant Software (Version 2.1, AB SCIEX). The pharmacokinetic profile of the test compound was analyzed from plasma and lung concentration-time data after oral administration.
A single 100 mg/kg dose of compound 12 was administered to 24 mice (3 per time point). Plasma and lung concentration of compound 12 was determined by liquid chromatography-tandem mass spectrometry.

in vitro = conditions: African green monkey, IC50 (cytotoxicity against Vero cells), Table 1
M. tuberculosis H37Rv [8] = conditions: 100 mg/kg oral gavage
[9] = Mycobacterium tuberculosis, H37RV
[10] = Mycobacterium tuberculosis, control strains H37Rv and V4207, read-out: MIC
[11] = Mycobacterium tuberculosis, parental H37Rv strain, read-out: MIC for H37Rv
[12] = read-out: IC50 Vero Cells, Vero cells, Table 9
[13] = isoniazid 10 mg/kg oral gavage daily

Cc1cc(C)c2cc(C(=O)NCC3CCCCC3)[nH]c2c1 [Compound 15, N-(Cyclohexylmethyl)-4,6-dimethyl-1H-indole-2-carboxamide]
MBCBD (M. tuberculosis H37Rv [1]; H37Rv, broth dilution, Table 9): 0.25
MICBD (M. tuberculosis H37Rv [1]; H37Rv, broth dilution, Table 9): 0.25
MICMABA ([2]; H37Rv, MABA, Table 9): 0.25
MIC [2, 9]: 0.88 µM
IC50 at 72 h [3]: > 200 µM
IC50 (Vero cells; read-out: IC50 Vero Cells): > 64 µg/mL

O=C(NC1CCCCC1)c1cc2ccccc2[nH]1 [Compound 26, N-Cyclohexyl-1H-indole-2-carboxamide]
MICBD (M. tuberculosis H37Rv [1]; H37Rv, broth dilution, Table 9): >128
MICMABA ([2]; H37Rv, MABA, Table 9): 128

Cc1cc(C)c2cc(C(=O)NC3CCCCCCC3)[nH]c2c1 [Compound 12, N-Cyclooctyl-4,6-dimethyl-1H-indole-2-carboxamide]
Mean lung CFU counts (standard deviation), Day 7 (M. tuberculosis H37Rv [4]; 33.3 mg/kg oral gavage daily (5 days per week)): 7.184 (0.244)
Mean lung CFU counts (standard deviation), Day 14 (M. tuberculosis H37Rv [4]; 33.3 mg/kg oral gavage daily): 7.001 (0.206)
Mean lung CFU counts (standard deviation), Day 28 (M. tuberculosis H37Rv [4]; 33.3 mg/kg oral gavage daily): 6.919 (0.112)
Mean lung CFU counts (standard deviation), Day 7 (M. tuberculosis H37Rv [4]; 100 mg/kg oral gavage daily): 6.902 (0.243)
Mean lung CFU counts (standard deviation), Day 14 (M. tuberculosis H37Rv [4]; 100 mg/kg oral gavage daily): 7.122 (0.148)
Mean lung CFU counts (standard deviation), Day 28 (M. tuberculosis H37Rv [4]; 100 mg/kg oral gavage daily): 6.803 (0.068)
Mean lung CFU counts (standard deviation), Day 7 (M. tuberculosis H37Rv [4]; 300 mg/kg oral gavage daily): 6.768 (0.329)
Mean lung CFU counts (standard deviation), Day 14 (M. tuberculosis H37Rv [4]; 300 mg/kg oral gavage daily): 6.981 (0.305)
Mean lung CFU counts (standard deviation), Day 28 (M. tuberculosis H37Rv [4]; 300 mg/kg oral gavage daily): 6.746 (0.157)
lung CFU counts compared to untreated mice (M. tuberculosis H37Rv [4]; after four weeks of treatment, 33, 100 and 300 mg/kg daily oral gavage): significantly lower
MBC (M. tuberculosis H37Rv [1]): 0.0078 µg/mL (≈ 0.0261 µM)
MIC [5]: 0.026 µM (≈ 0.00776 µg/mL)
MICMABA ([2]; H37Rv, MABA, Table 9): 0.0039
MIC [2, 9]: 0.013 µM
MIC [2, 10]: 0.0039 µg/mL
MIC [2, 11]: 0.0039 µg/mL
MIC for H37Rv ([2]; parental H37Rv strain): 0.0039 µg/mL
IC50 at 72 h [3]: 54 µM
IC50 (Vero cells; read-out: IC50 Vero Cells): 16 µg/mL (≈ 53.6 µM)
Selectivity Index (Vero cells; Vero IC50 versus MIC, Table 9): 4000
selectivity index (Vero cells; toxicity versus MIC): 4000
time to kill at least 4 log10 CFUs (M. tuberculosis H37Rv [6]): ≤ 5 days
oral bioavailability in mice [7]: orally bioavailable
AUC0-24, lung ([7]; po, 100 mg/kg): 31.40 mg·h/kg

Cc1cc(C)c2cc(C(=O)NC34CC5CC(CC(C5)C3)C4)[nH]c2c1 [Compound 13, N-(1-Adamantyl)-4,6-dimethyl-1H-indole-2-carboxamide]
MICMABA ([2]; H37Rv, MABA, Table 9): 0.0019
MIC [2, 9]: 0.012 µM
IC50 at 72 h [3]: > 200 µM
IC50 (Vero cells; read-out: IC50 Vero Cells): > 64 µg/mL

Cc1cc(C)c2cc(C(=O)Nc3ccncc3)[nH]c2c1 [Compound 6, N-(4-Pyridinyl)-4,6-dimethyl-1H-indole-2-carboxamide]
MICBD (M. tuberculosis H37Rv [1]; H37Rv, broth dilution, Table 9): 64
MICMABA ([2]; H37Rv, MABA, Table 9): 32
MIC [2, 9]: 240 µM

Cc1cc(C)c2cc(C(=O)NC3CCCCC3)n(C)c2c1 [Compound 18, N-Cyclohexyl-1,4,6-trimethyl-11-1-indole-2-carboxamide]
MICBD (M. tuberculosis H37Rv [1]; H37Rv, broth dilution, Table 9): 128
MICMABA [2]: 128
MIC [2, 9]: 450 µM

Cc1cc(C)c2cc(C(=O)Nc3ccc(C)c(F)c3)[nH]c2c1 [Compound 5, N-(3-Fluoro-4-methylphenyl)-4,6-dimethyl-1H-indole-2-carboxamide]
MBCBD (M. tuberculosis H37Rv [1]; H37Rv, broth dilution, Table 9): 8
MICBD (M. tuberculosis H37Rv [1]; H37Rv, broth dilution, Table 9): 0.5
MICMABA ([2]; H37Rv, MABA, Table 9): 0.25
MIC [2, 9]: 1.7 µM
IC50 at 72 h [3]: > 200 µM
IC50 (Vero cells; read-out: IC50 Vero Cells): > 64 µg/mL

Cc1cc(C)c2cc(C(=O)NC3CC3)[nH]c2c1 [Compound 10, N-Cyclopropyl-4,6-dimethyl-1H-indole-2-carboxamide]
MICBD (M. tuberculosis H37Rv [1]; H37Rv, broth dilution, Table 9): 128
MICMABA ([2]; H37Rv, MABA, Table 9): 64
MIC [2, 9]: 561 µM

Cc1cc(C)c2cc(C(=O)Nc3ccccc3)[nH]c2c1 [Compound 4, N-Phenyl-4,6-dimethyl-1H-indole-2-carboxamide]
MBCBD (M. tuberculosis H37Rv [1]; H37Rv, broth dilution, Table 9): 8
MICBD (M. tuberculosis H37Rv [1]; H37Rv, broth dilution, Table 9): 1
MICMABA ([2]; H37Rv, MABA, Table 9): 1
MIC [2, 9]: 3.8 µM
IC50 (Vero cells; [12]): > 64 µg/mL
IC50 (in vitro): > 200 µM

Cc1cc(C)c2cc(C(=O)NC3C4CC5CC(C4)CC3C5)[nH]c2c1 (centres unmarked) [Compound 14, N-(2-Adamantyl)-4,6-dimethyl-1H-indole-2-carboxamide]
MICMABA ([2]; H37Rv, MABA, Table 9): 0.0039
MIC [2, 9]: 0.012 µM
IC50 at 72 h [3]: > 200 µM
IC50 (Vero cells; read-out: IC50 Vero Cells): > 64 µg/mL

Cc1cc(C)c2cc(C(=O)NC3CCCCC3)[nH]c2c1 [Compound 3, N-Cyclohexyl-4,6-dimethyl-1H-indole-2-carboxamide]
MBCBD (M. tuberculosis H37Rv [1]; H37Rv, broth dilution, Table 9): 0.25
MICBD (M. tuberculosis H37Rv [1]; H37Rv, broth dilution, Table 9): 0.25
MBC (M. tuberculosis H37Rv [1]): 0.25 µg/mL (≈ 0.925 µM)
MIC [5]: 0.93 µM (≈ 0.251 µg/mL)
MICMABA ([2]; H37Rv, MABA, Table 9): 0.125
MIC [2, 9]: 0.93 µM
MIC [2, 10]: 0.125 to 0.25 µg/mL
MIC [2, 11]: 0.125 to 0.25 µg/mL
Selectivity Index (Vero cells): >256
selectivity index (Vero cells): > 256
IC50 (Vero cells; [12]): > 64 µg/mL
IC50 for Vero cell viability (Vero cells; Vero cell line): 16 µg/mL
IC50 (in vitro): > 200 µM

NNC(=O)c1ccncc1 [Isoniazid, reference compound]
Mean lung CFU counts (standard deviation), Day 7 (M. tuberculosis H37Rv [4]; isoniazid 10 mg/kg oral gavage daily (5 days per week)): 5.508 (0.124)
Mean lung CFU counts (standard deviation), Day 14 (M. tuberculosis H37Rv [4]; [13]): 5.266 (0.089)
Mean lung CFU counts (standard deviation), Day 28 (M. tuberculosis H37Rv [4]; [13]): 4.561 (0.088)
MICMABA ([2]; H37Rv, MABA, Table 9): 0.04
MIC [2, 9]: 0.29 µM
MIC [2, 11]: 0.04 µg/mL

Cc1cc(C)c2cc(C(=O)NC3CCCCCC3)[nH]c2c1 [Compound 11, N-Cycloheptyl-4,6-dimethyl-1H-indole-2-carboxamide]
MBCBD (M. tuberculosis H37Rv [1]; H37Rv, broth dilution, Table 9): 0.0312
MICBD (M. tuberculosis H37Rv [1]; H37Rv, broth dilution, Table 9): 0.0156
MBC (M. tuberculosis H37Rv [1]): 0.0313 µg/mL (≈ 0.11 µM)
MIC [5]: 0.11 µM (≈ 0.0313 µg/mL)
MICMABA ([2]; H37Rv, MABA, Table 9): 0.0156
MIC [2, 9]: 0.055 µM
MIC [2, 10]: 0.0156 to 0.0313 µg/mL
MIC [2, 11]: 0.0156 to 0.0313 µg/mL
IC50 at 72 h [3]: > 200 µM
IC50 (Vero cells; read-out: IC50 Vero Cells): > 64 µg/mL
IC50 (Vero cells; read-out: IC50 for Vero cell viability): > 64 µg/mL
Selectivity Index (Vero cells; Vero IC50 versus MIC, Table 9): >2048
selectivity index (Vero cells; toxicity versus MIC): > 2048
time to kill at least 4 log10 CFUs (M. tuberculosis H37Rv [6]): ≤ 3 days

N-(2,3,5 -methyl, 4-dimethyl)-4,6-difluoro-1H-indole-2-carboxamide
bioavailability in vivo by serum inhibition titration (M. tuberculosis H37Rv [8]; Balb/c mice): bioavailable in vivo
serum inhibition activity compared with isoniazid (M. tuberculosis H37Rv [8]; isoniazid positive control): comparable to that of isoniazid
activity in comparison to the 4,6-dimethyl analog (1h) ([2]; H37Rv MIC relative to 1h): as active as 1h
MICMABA ([2]; H37Rv, MABA, Table 9): 0.0039

Cc1cc(C)c2cc(C(=O)N(C)C3CCCCC3)[nH]c2c1 [Compound 16, N-Cyclohexyl-N,4,6-trimethyl-/H-indole-2-carboxamide]
MICBD (M. tuberculosis H37Rv [1]): 128
MIC [2]: 450 µM
MICMABA [2]: 32

Cc1ccc(NC(=O)c2cc3ccccc3[nH]2)cc1F [Compound 27, N-(3-Fluoro-4-methylphenyl)-1H-indole-2-carboxamide]
MICBD (M. tuberculosis H37Rv [1]; H37Rv, broth dilution, Table 9): 128
MICMABA ([2]; H37Rv, MABA, Table 9): 128

O=C(NC12CC3CC(CC(C3)C1)C2)c1cc2ccc(O)cc2[nH]1 [Compound 32, N-(1-Adamantyl)-6-hydroxy-1H-indole-2-carboxamide]
MICMABA ([2]; H37Rv, MABA, Table 9): 2
IC50 (Vero cells; read-out: IC50 Vero Cells): 16 µg/mL (≈ 51.5 µM)

COc1ccc2cc(C(=O)NC34CC5CC(CC(C5)C3)C4)[nH]c2c1 [Compound 30, N-(1-Adamantyl)-6-methoxy-1H-indole-2-carboxamide]
MICMABA ([2]; H37Rv, MABA, Table 9): 0.25
IC50 (Vero cells; [12]): 64 µg/mL (≈ 197 µM)
